Experimental data taken from patent US12678440B2, “Compositions and methods for treating misfolded protein ocular disorders” (CASE WESTERN RESERVE UNIVERSITY, priority 2020, dated 2026).

Columns and labels:
Format in all cases: cell-based
[1] = tested on: P23H mutant mouse rhodopsin fused with Renilla luciferase (Rluc); assay: Rluc (luciferase) reporter assay in Hek293 (RHO^P23H-Rluc) cells; settings: for Efficacy, Rluc assay Hek293 (RHO^P23H − Rluc): 24 h, DMSO 0%, Evans Blue −100% controls; for EC50: 24 h compound treatment, dose-response, triplicate
Text: Two Hek293 stable cell lines, Hek293 (RHO^WT-Rluc) and Hek293 (RHO^P23H-Rluc) cells were generated which stably express the WT and P23H mutant mouse rhodopsin each fused with a Renilla luciferase (Rluc) for the luciferase reporter assay as previously described. Briefly, the Hek 293 cells (ATCC, Manassas, VA, USA) were transfected with the pcDNA3.1 Zeo containing the cDNA of mouse WT or P23H rhodopsin fused with a Rluc 8 (a gift from Dr. Navine Lambert at Augusta University, Augusta, GA USA) and transfected cells were incubated in Dulbecco's modified Eagle's medium (DMEM, Genesee Scientific, E1 Cajon, CA USA) with 10% fetal bovine serum (FBS, Gibco Laboratories, Gaithersburg, MD USA) for 48 h before addition of 400 μg/mL of Zeocin (InvivoGen, San Diego, CA USA) for positive clone selection. Colonies of cells survived from 1 week of Zeocin selection were collected, and expression of WT and P23H rhodopsin were confirmed by a luciferase assay and immunoblotting of rhodopsin with positive bands of monomers at about 70 kD (FIG. 8). The difference of molecular masses between WT and P23H rhodopsin proteins was due to differences in glycosylation, which was also seen in the NIH3T3 cells expressing the WT and P23H rhodopsin proteins.
The HTS was performed at three facilities, including University of Cincinnati (UC), Case Western Reserve University, and National Center for Advancing Translational Sciences (NCATS), testing a total of six compound collections. These compound collections include: 1) the UC 10K Diversity Set (10,011 compounds), 2) the Life Chemicals 50K Collection (50,560), 3) the Spectrum Collection (2,400 compounds), 4) the LOPAC collection (1,280 compounds), 5) the FDA collection (2,816 compounds), and 6) the NCATS MIPE collection (1,912 compounds). […] For the compound collections 1), 2) and 3), we firstly tested each compound using the P23H rhodopsin luciferase reporter assay at a single dose for once (9.93 to 16.13 μM) in 384-well format, and we identified 2072 compounds with activity scores lower than the cutoff at mean-2SD. Activity scores were normalized using DMSO treated cells as 0% control and the 1 mM Evans Blue treated cells as −100% control. From these hit compounds, we excluded those reported with luciferase inhibitor activities and cherry-picked the rest for hit confirmation. Each hit was tested at 10 μM in the Hek293 (RHO^P23H-Rluc) cells again by the luciferase reporter assay in triplicates, and the confirmed hits with activity scores lower than-50% were then counter screened for their effects on Rluc activity by the recombinant Rluc activity assay, and on WT rhodopsin level by the luciferase reporter assay in the Hek293 (RHO^WT-Rluc) cells at 10 μM in triplicates, respectively. […] Next, we tested the dose responses of these confirmed hits in both the Hek293 (RHO^P23H-Rluc) and the Hek293 (RHO^WT-Rluc) cells and identified compounds that selectively favored the clearance of P23H than WT rhodopsin in a dose-dependent manner (Table 4). For the compound collections 4)-6), we tested each compound directly at 7 or 11 doses using the luciferase reporter assay in the Hek293 (RHO^P23H-Rluc) cells in 1536-well format, and identified 128 compounds with efficacy smaller than-50% and EC50<20 μM.
The Rluc reporter assay has been described before. HTS was undertaken in 384-well format for the UC 10K Diversity Set, Spectrum Collection and the Life Chemicals 50K diversity set, and in 1536-well format for the FDA, LOPAC, and MIPE collections. Using the 384-well format as an example, Hek (RHO^P23H-Rluc) cells were seeded in 384-well white-wall clear-bottom plates (assay plates) at 3×10^5/mL for 40 μL/well by an 8-channel Multiflo liquid dispenser (Bioteck, Winooski, VT USA). The assay plates were centrifuged at 300×g for 30 s and cultured at 37° C. with 5% CO2 overnight. […]

[2] = tested on: P23H rhodopsin; assay: Rhodopsin dot blot of NIH3T3 stable cells; settings: 10 μM, 24 h, vs DMSO
Method: NIH3T3 (RHO^P23H/GFP) or NIH3T3 (RHO^WT/GFP) cells were seeded at 2.5×10^4 cells/well in 100 μL/well complete medium in a 96-well plate and cultured at 37° C. with 5% CO2 for 4 h. Cells then were treated with 100 μL/well complete medium containing 2×the final concentration of tested compounds. After 24 h of further incubation at 37° C. with 5% CO2, the medium was aspirated, and the cells were washed once with PBS. The cell lysis buffer containing radioimmunoprecipitation assay (RIPA) buffer and complete protease inhibitor cocktail (Roche Diagnostics, Basel, Switzerland) were added to the cells at 200 μL/well followed by sonication for 6 s. Because the cellular protein level of RHO^WT was higher than RHO^P23H, 5% of one well NIH3T3 (RHO^WT/GFP) cells samples and 90% of one well NIH3T3 (RHO^P23H/GFP) cells samples were loaded to a nitrocellulose membrane and air-dried. Opsin protein was immunostained with 0.1 μg/mL HRP-conjugated 1D4 anti-rhodopsin antibody. Densitometry of the bands was measured by the ImageJ software and normalized to DMSO-treating control.

[3] = tested on: P23H rhodopsin; assay: Non-radioactive pulse-chase assay in NIH3T3 (RHO^P23H/GFP) cells; settings: 10 μM; for Rate of Rho^P23H degradation (Pulse-chase): 24 h of chase, vs DMSO; for BTN-AHA labeled P23H rhodopsin at 24 h of chase: in comparison to DMSO control
Method: To quantify rhodopsin degradation, a non-radioactive pulse-chase assay was used with a ‘click’ reaction. Briefly, NIH3T3 (Rho^P23H/GFP) or NIH3T3 (Rho^WT/GFP) cells were cultured in a 24-well plate at 3×10^5 cells/well in the complete medium with 10% FBS. The medium was aspirated after overnight culture, and cells were gently washed once with 1 mL/well of PBS. Cell were incubated in the L-methionine-free DMEM (Gibco, 21013-024, Gaithersburg, MD USA) for 1 h to exhaust the intracellular methionine. Then the cells were pulsed with L-AHA at final concentration 50 μM for 4 h. Meanwhile, the cells treated with 50 μM L-methionine were used as negative control. After labeling, cells were replaced with the complete DMEM medium with 2 mM L-methionine in the presence or absence of active compounds for a varying time of chase. Then cells were lysed with PBS containing 0.1% SDS, 1% DDM and the complete protease inhibitor cocktail. The total protein concentrations were measured by a BCA assay. Cell lysate containing 200 μg total protein was mixed with 5 μM BTN-sDIBO to make a ‘click’ reaction for 1 h at 37° C. Samples were incubated with Dynabeads™ Protein G binding with 1D4 anti-rhodopsin antibody for 15 min at room temperature followed by three washes with PBS containing 0.02% Tween 20. Proteins were eluted with 50 mM Glycine at pH 2.8 for 10 min at room temperature and then loaded onto nitrocellulose membranes. After air-dried, the membranes were blocked with 5% milk and immunoblotted with 0.25 μg/mL HRP-conjugated SA.

In the case of `CC(=O)OC(CC(=O)[O-])C[N+](C)(C)C` (centres unmarked) [CL-001], the “Efficacy, Rluc assay Hek293 (RHO^P23H − Rluc)” value (from here on “Efficacy, Rluc assay Hek293”) [1] is reported as −69.4%, the EC50 [1] is reported as 1.1 µM and the “Rho protein level (Dot blot)” value [2] is reported as “Down”. The “Rate of Rho^P23H degradation (Pulse-chase)” value (from here on “Rate of Rho^P23H degradation”) [3] was “Up” and the “BTN-AHA labeled P23H rhodopsin at 24 h of chase” value (shortened to “BTN-AHA labeled P23H rhodopsin”) [3] was “significantly reduced”.

With `CC(=O)OC(CC(=O)O)C[N+](C)(C)C` (centres unmarked) [CL-002] the “Efficacy, Rluc assay Hek293” value [1] was −86.1%, the EC50 [1] was 2 µM and the “Rho protein level (Dot blot)” value [2] was “Down”. For the same compound, the “Rate of Rho^P23H degradation” value [3] was “Up” and the “BTN-AHA labeled P23H rhodopsin” value [3] was “significantly reduced”.

With `O=C(O)C1=CC=CC(O)C1O` (centres unmarked) [CL-003] the “Efficacy, Rluc assay Hek293” value [1] was −65.3%, the EC50 [1] was 0.89 µM and the “Rho protein level (Dot blot)” value [2] was “Down”. For the same compound, the “Rate of Rho^P23H degradation” value [3] was “No Change”.

For `CC(O)CN` (centres unmarked) [CL-004], the “Efficacy, Rluc assay Hek293” value [1] was −68.6%, the EC50 [1] was 1.6 µM and the “Rho protein level (Dot blot)” value [2] was “Down”. The “Rate of Rho^P23H degradation” value [3] was “No Change”.

For `NCC(=O)COP(=O)(O)O` [CL-005], the “Efficacy, Rluc assay Hek293” value [1] was −78.2%, the EC50 [1] was 6.6 µM and the “Rho protein level (Dot blot)” value [2] was “Down”. For the same compound, the “Rate of Rho^P23H degradation” value [3] was “Up” and the “BTN-AHA labeled P23H rhodopsin” value [3] was “significantly reduced”.

With `O=C(NC1CCNCC1)c1n[nH]cc1NC(=O)c1c(Cl)cccc1Cl` [CL-006] the “Efficacy, Rluc assay Hek293” value [1] was −66.2%, the EC50 [1] was 1.7 µM and the “Rho protein level (Dot blot)” value [2] was “Down”. The “Rate of Rho^P23H degradation” value [3] was “No Change”.

For `CCn1cnc2c(N)ncnc21` [CL-007], the “Efficacy, Rluc assay Hek293” value [1] was −72.5%, the EC50 [1] was 13 µM and the “Rho protein level (Dot blot)” value [2] was “Down”. The “Rate of Rho^P23H degradation” value [3] was “Up” and the “BTN-AHA labeled P23H rhodopsin” value [3] was “significantly reduced”.

With `CCC(C)(O)C(O)C(=O)O` (centres unmarked) [CL-008] the “Efficacy, Rluc assay Hek293” value [1] was −89.5%, the EC50 [1] was 0.93 µM and the “Rho protein level (Dot blot)” value [2] was “Down”. The “Rate of Rho^P23H degradation” value [3] was “No Change”.

`CN(Cc1cnc2nc(N)nc(N)c2n1)c1ccc(C(=O)N[C@@H](CCC(=O)O)C(=O)O)cc1` [CL-009, N-[4-[[(2,4-diamino-6-pteridinyl)methyl]methylamino]benzoyl]-L-glutamic acid] was tested, and the “Efficacy, Rluc assay Hek293” value [1] was −53.0%, the EC50 [1] was 0.43 µM and the “Rho protein level (Dot blot)” value [2] was “Down”. The “Rate of Rho^P23H degradation” value [3] was “Up” and the “BTN-AHA labeled P23H rhodopsin” value [3] was “significantly reduced”.
